Assay results reported in patent publication US6222035A, “[1,2,4] triazolo [1,5-C] pyrimidine derivatives” (Kyowa Hakko Kogyo Co., Ltd., priority 1997, dated 2001).
Structures can show the parent of a compound that is named as a salt.

Legend:
[1] = molecular target: T1, adenosine A2A receptor (Rattus norvegicus, UniProt P30543); test: Adenosine receptor binding activity (adenosine A2A receptor binding test), 3H-CGS 21680 binding; settings: 2 h, read-out: A2A receptor inhibition ratio (%); for inhibition at 0.1 µM: 10^-7 M; for inhibition at 0.01 µM: 10^-8 M
T1 construct: from tissue; host or cells: rat corpus striatum, washed membrane suspension
T1 sequence (P30543 whole entry): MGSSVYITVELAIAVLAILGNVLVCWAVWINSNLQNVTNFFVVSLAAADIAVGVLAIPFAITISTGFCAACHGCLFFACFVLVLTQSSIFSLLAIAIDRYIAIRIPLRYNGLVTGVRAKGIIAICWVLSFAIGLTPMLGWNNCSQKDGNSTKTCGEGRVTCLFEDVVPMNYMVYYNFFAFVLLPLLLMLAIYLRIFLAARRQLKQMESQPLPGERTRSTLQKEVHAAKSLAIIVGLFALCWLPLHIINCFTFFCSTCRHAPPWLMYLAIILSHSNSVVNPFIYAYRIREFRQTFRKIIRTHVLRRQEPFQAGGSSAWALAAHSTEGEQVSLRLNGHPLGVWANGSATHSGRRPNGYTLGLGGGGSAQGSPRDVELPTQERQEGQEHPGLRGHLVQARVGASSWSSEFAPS
Protocol: Adenosine receptor binding activity (adenosine A2A receptor binding test) This test was carried out by slightly modifying the method of Bruns et al. [Molecular Pharmacology, 29: 331 (1986)].
Corpus striatum of a rat was suspended in an ice-cooled 50 mM tris(hydroxymethyl)aminomethane hydrochloride (hereinafter referred to as "Tris-HCl") buffer (pH 7.7) using Polytron Homogenizer (manufactured by Kinematica Co.). The suspension was centrifuged (50,000×g, 10 minutes), and the obtained precipitate was re-suspended in the same amount of 50 mM Tris-HCl buffer. The suspension was centrifuged under the same conditions, and the final precipitate was suspended in 50 mM Tris-HCl [containing 10 mM magnesium chloride and 0.02 unit/mg tissue of adenosine deaminase (manufactured by Sigma Co.)] to give a tissue concentration of 5 mg (wet weight)/ml.
To 1 ml of the tissue suspension thus prepared were added 50 μl of tritium-labeled CGS 21680 {^3 H-2-[p-(2-carboxyethyl)phenethylamino]-5'-N-ethylcarboxamido)adenosine: 40 Ci/mmol; manufactured by New England Nuclear Co.[The Journal of Pharmacology and Experimental Therapeutics, 251: 888 (1989)]} (final concentration:4.0 nM) and 50 μl of a test compound. The resulting mixture was allowed to stand for 120 minutes at 25° C., and then rapidly filtered by suction through a glass fiber filter (GF/C, manufactured by Whatman Co.) The filter was immediately washed three times with […] of an ice-cooled 50 mM Tris-HCl buffer, and transferred to a vial, a scintillator (EX-H , manufactured by Wako Pure Chemical Industries, Ltd.) was added thereto, and the radioactivity on the filter was determined with a liquid scintillation counter (manufactured by Packard Instrument Co.) […]
The inhibition ratio of the test compound against the A2A receptor binding (^3 H-CGS 21680 binding) was calculated by the following equation:
Inhibition ratio (%)={1-(Amount of the binding in the presence of the test compound-Amount of the nonspecific binding)/(Amount of the total binding-Amount of the nonspecific binding)}×100
(Note) Amount of the total binding means the amount of radioactivity of ^3 H-CGS 21680 bound in the absence of the test compound. Amount of the nonspecific binding means the amount of radioactivity of ^3 H-CGS 21680 bound in the presence of 100 μM cyclopentyladenosine (CPA, manufactured by Sigma Co.) Amount of the binding in the presence of the test compound means the amount of radioactivity of ^3 H-CGS 21680 bound in the presence of the test compound at various levels of concentrations.

[2] = test system: CGS 21680-induced catalepsy in mice; test: Activity on CGS 21680-induced Catalepsy; assay type: in vivo, mouse (male ddY); settings: 10 mg/kg oral; for Total score (catalepsy): 10 animals, maximum 50 points, control 48; for Number of Animals showing remission: catalepsy score 4 points or less in 10 cases; for inhibition in vivo at 10 mg/kg: Mus musculus, CGS 21680-induced catalepsy, read-out: Remission ratio (%)
Protocol: Activity on CGS 21680-induced Catalepsy
Parkinson's disease is motor deficit based on the degeneration and cell death of the nigrostriatal dopaminergic neuron. […] [Journal of Neuroscience, 16: 605 (1996)]. Accordingly, it is considered that adenosine A2A receptor agonists positively regulate the output of the striopallidal GABAergic neurons and, as a result, catalepsy is induced by the administration of CGS 21680.
This test was carried out using 10 animals per group of male ddY mice of 5 week age (22 to 25 g in body weight, Japan SLC). CGS 21680 (manufactured by RBI) was dissolved in a physiological saline (manufactured by Otsuka Pharmaceutical), and 10 μg/20 μl of the solution was injected into mouse intracerebro-ventricle. Test compounds were used by suspending them in distilled water containing 0.3% of polyoxyethylene(20)sorbitan monooleate (hereinafter referred to as "Tween 80") (manufactured by Otsuka Pharmaceutical). […] One hour after the administration of the test compound, only forelimbs or only hindlimbs of each animal were laid on a vertically arranged stand made of acryl, having a size of 4.5 cm in height and 1.0 cm in width, to measure catalepsy symptoms. All of the compounds were administered orally in a dose of 10 mg/kg.
The effect was judged by total catalepsy scores of 10 animals in one group (the maximum is 50 points). When the total score was 40 points or less, the activity of drugs was judged positive. The number of animals showing remission of catalepsy was expressed by the number of cases in which the catalepsy score was 4 points or less in 10 cases. The catalepsy remission ratio was expressed as the percentage of the total score in the test compound-administered group to the total score in the control group.

inhibition at 0.1 µM [1] [%]	inhibition at 0.01 µM [1] [%]	SMILES	Total score (catalepsy) [2]	Number of Animals showing remission [2]	inhibition in vivo at 10 mg/kg [2] [%]
41		CC(O)CN1CCN(c2cc3nc(-c4ccco4)nn3c(N)n2)CC1 (racemic) [Compound 105, (±)-5-Amino-2-(2-furyl)-7-(4-(2-hydroxypropyl)piperazinyl)[1,2,4]triazolo[1,5-c]pyrimidine]	4	10	92
52		CC(CO)N1CCN(c2cc3nc(-c4ccco4)nn3c(N)n2)CC1 (racemic) [Compound 111, (±)-5-Amino-2-(2-furyl)-7-(4-((2-hydroxy-1-methyl)ethyl)piperazinyl)[1,2,4]triazolo[1,5-c]pyrimidine]			
54	16	COc1ccc(CNc2nc(Sc3ccccc3)cc3nc(-c4ccco4)nn23)cc1OC [Compound 10, 5-(3,4-Dimethoxybenzylamino)-2-(2-furyl)-7-phenylthio[1,2,4]triazolo[1,5-c]pyrimidine]			
86	46	COc1cc(OC)cc(Oc2cc3nc(-c4ccco4)nn3c(N)n2)c1 [Compound 33, 5-Amino-7-(3,5-dimethoxyphenoxy)-2-(2-furyl)[1,2,4]triazolo[1,5-c]pyrimidine]			
82	43	Nc1nc(Oc2ccc(Cl)cc2)cc2nc(-c3ccco3)nn12 [Compound 35, 5-Amino-7-(4-chlorophenoxy)-2-(2-furyl)[1,2,4]triazolo[1,5-c]pyrimidine]	15	8	66
79	20	Nc1nc(N2CCN(Cc3ccc4c(c3)OCO4)CC2)cc2nc(-c3ccco3)nn12 [Compound 66, 5-Amino-2-(2-furyl)-7-(4-piperonylpiperazinyl)[1,2,4]triazolo[1,5-c]pyrimidine]			
77	39	COc1ccc(CN2CCN(c3cc4nc(-c5ccco5)nn4c(N)n3)CC2)cc1OC [Compound 67, 5-Amino-7-[4-(3,4-dimethoxybenzyl)piperazinyl]-2-(2-furyl)[1,2,4]triazolo[1,5-c]pyrimidine]			
90	59	Nc1nc(N2CCN(Cc3ccccc3Cl)CC2)cc2nc(-c3ccco3)nn12 [Compound 68, 5-Amino-7-[4-(2-chlorobenzyl)piperazinyl]-2-(2-furyl)[1,2,4]triazolo[1,5-c]pyrimidine]			
62	44	Nc1nc(N2CCN(Cc3cccc(Cl)c3)CC2)cc2nc(-c3ccco3)nn12 [Compound 69, 5-Amino-7-[4-(3-chlorobenzyl)piperazinyl]-2-(2-furyl)[1,2,4]triazolo[1,5-c]pyrimidine]			
66	17	Nc1nc(N2CCN(Cc3cccnc3)CC2)cc2nc(-c3ccco3)nn12 [Compound 70, 5-Amino-2-(2-furyl)-7-[4-(3-picolyl)piperazinyl][1,2,4]triazolo[1,5-c]pyrimidine]			
73	29	Nc1nc(N2CCN(Cc3ccncc3)CC2)cc2nc(-c3ccco3)nn12 [Compound 71, 5-Amino-2-(2-furyl)-7-[4-(4-picolyl)piperazinyl][1,2,4]triazolo[1,5-c]pyrimidine]			
66	10	Nc1nc(N2CCN(CC3CCCCC3)CC2)cc2nc(-c3ccco3)nn12 [Compound 72, 5-Amino-7-(4-cyclohexylmethylpiperazinyl)-2-(2-furyl)[1,2,4]triazolo[1,5-c]pyrimidine]			
86	51	CC(c1ccccc1)N1CCN(c2cc3nc(-c4ccco4)nn3c(N)n2)CC1 (centres unmarked) [Compound 73, 5-Amino-2-(2-furyl)-7-[4-(1-phenylethyl)piperazinyl][1,2,4]triazolo[1,5-c]pyrimidine]			
84		COc1ccc(OC)c(CN2CCN(c3cc4nc(-c5ccco5)nn4c(N)n3)CC2)c1 [Compound 75, 5-Amino-7-((2,5-dimethoxybenzyl)piperazinyl)-2-(2-furyl)[1,2,4]triazolo[1,5-c]pyrimidine]	10	9	76
73		COc1cc(CN2CCN(c3cc4nc(-c5ccco5)nn4c(N)n3)CC2)cc(OC)c1 [Compound 76, 5-Amino-7-(4-(3,5-dimethoxybenzyl)piperazinyl)-2-(2-furyl)[1,2,4]triazolo[1,5-c]pyrimidine]	11	10	76
80		COc1ccc(CCN2CCN(c3cc4nc(-c5ccco5)nn4c(N)n3)CC2)cc1OC [Compound 85, 5-Amino-7-(4-(2-(3,4-dimethoxyphenyl)ethyl)piperazinyl)-2-(2-furyl)[1,2,4]triazolo[1,5-c]pyrimidine]			
37		Nc1nc(N2CCN(c3nc4ccccc4o3)CC2)cc2nc(-c3ccco3)nn12 [Compound 94, 5-Amino-7-(4-(2-benzoxazolyl)piperazinyl)-2-(2-furyl)[1,2,4]triazolo[1,5-c]pyrimidine]			
72		Nc1nc(N2CCN(CCCOCc3ccccc3)CC2)cc2nc(-c3ccco3)nn12 [Compound 102, 5-Amino-7-(4-(3-benzyloxypropyl)piperazinyl)-2-(2-furyl)[1,2,4]triazolo[1,5-c]pyrimidine hydrochloride]			
38		COCCN1[C@H](C)CN(c2cc3nc(-c4ccco4)nn3c(N)n2)C[C@@H]1C [Compound 117, 5-Amino-7-(cis-3,5-dimethyl-4-(2-methoxyethyl)piperazinyl)-2-(2-furyl)[1,2,4]triazolo[1,5-c]pyrimidine]			
51		C[C@@H]1CN(c2cc3nc(-c4ccco4)nn3c(N)n2)C[C@H](C)N1CCCc1ccccc1 [Compound 119, 5-Amino-7-(cis-3,5-dimethyl-4-(3-phenylpropyl)piperazinyl)-2-(2-furyl)[1,2,4]triazolo[1,5-c]pyrimidine]			
82		Nc1nc(SCc2ccccn2)cc2nc(-c3ccco3)nn12 [Compound 182, 5-Amino-2-(2-furyl)-7-(2-picolylthio)[1,2,4]triazolo[1,5-c]pyrimidine]			
82		Nc1nc(SCc2ccccc2)cc2nc(-c3ccco3)nn12 [Compound 183, 5-Amino-7-benzylthio-2-(2-furyl)[1,2,4]triazolo[1,5-c]pyrimidine]			
52		Cc1ccc(CSc2cc3nc(-c4ccco4)nn3c(N)n2)cc1 [Compound 186, 5-Amino-2-(2-furyl)-7-(4-methylbenzylthio)[1,2,4]triazolo[1,5-c]pyrimidine]			
75		Nc1nc(SCc2ccccc2[N+](=O)[O-])cc2nc(-c3ccco3)nn12 [Compound 194, 5-Amino-2-(2-furyl)-7-(2-nitrobenzylthio)[1,2,4]triazolo[1,5-c]pyrimidine]			
		Nc1nc(Oc2ccc(Br)cc2)cc2nc(-c3ccco3)nn12 [Compound 228]	14	8	72
